# Target: T1, Caspase-3 (Homo sapiens, UniProt P42574)
# T1 sequence (P42574 whole entry): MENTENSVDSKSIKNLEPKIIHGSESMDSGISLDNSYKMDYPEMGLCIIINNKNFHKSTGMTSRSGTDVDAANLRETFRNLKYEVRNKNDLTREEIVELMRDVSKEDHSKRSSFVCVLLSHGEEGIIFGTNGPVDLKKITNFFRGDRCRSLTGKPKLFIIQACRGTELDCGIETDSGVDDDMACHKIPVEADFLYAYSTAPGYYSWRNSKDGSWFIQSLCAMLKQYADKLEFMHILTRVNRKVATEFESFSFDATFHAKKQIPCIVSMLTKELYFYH
# Assay: In vitro inhibitory concentration against human caspase-3
row,IC50 [nM],SMILES
1,33,CC(=O)OCCN1C(=O)c2c(-c3cccnc3)nc3ccc(S(=O)(=O)N4CCOCC4)cc3c2C1=O
2,255,CC(=O)OCCN1C(=O)c2c(SC(=N)N)nc3ccc(S(=O)(=O)N4CCOCC4)cc3c2C1=O
3,27,CC(=O)OCCN1C(=O)c2c(-c3ccccc3)nc3ccc(S(=O)(=O)N4CCOCC4)cc3c2C1=O
4,1290,COC(=O)CSc1nc2ccc(S(=O)(=O)N3CCOCC3)cc2c2c1C(=O)N(CCOC(C)=O)C2=O
5,33,CC(=O)OCCN1C(=O)c2c(/C=C/c3ccc(C(F)(F)F)cc3)nc3ccc(S(=O)(=O)N4CCOCC4)cc3c2C1=O
6,352,COC(=O)C[S+]([O-])c1nc2ccc(S(=O)(=O)N3CCOCC3)cc2c2c1C(=O)N(CCOC(C)=O)C2=O (configuration not stated)
7,33,CC(=O)OCCN1C(=O)c2c(-c3ccc(F)c(Cl)c3)nc3ccc(S(=O)(=O)N4CCOCC4)cc3c2C1=O
8,40,CC(=O)OCCN1C(=O)c2c(C(C)C)nc3ccc(S(=O)(=O)N4CCOCC4)cc3c2C1=O
9,36,CC(=O)OCCN1C(=O)c2c(-c3ccco3)nc3ccc(S(=O)(=O)N4CCOCC4)cc3c2C1=O
10,15400,CC(=O)OCCN1C(=O)c2c(N3CCOCC3)nc3ccc(S(=O)(=O)N4CCOCC4)cc3c2C1=O
11,362,COC(=O)CS(=O)(=O)c1nc2ccc(S(=O)(=O)N3CCOCC3)cc2c2c1C(=O)N(CCOC(C)=O)C2=O
12,27900,CC(=O)OCCN1C(=O)c2c(Nc3ccc(F)c(Cl)c3)nc3ccc(S(=O)(=O)N4CCOCC4)cc3c2C1=O
13,10900,CC(=O)OCCN1C(=O)c2c(c3cc(S(=O)(=O)N4CCOCC4)ccc3[nH]c2=O)C1=O
14,294,CC(=O)OCCN1C(=O)c2c(Cl)nc3ccc(S(=O)(=O)N4CCOCC4)cc3c2C1=O
15,5190,CCOC(=O)C[C@@H](Nc1nc2ccc(S(=O)(=O)N3CCOCC3)cc2c2c1C(=O)N(CCOC(C)=O)C2=O)C(=O)OCC
16,23,CC(=O)OCCN1C(=O)c2c(C)nc3ccc(S(=O)(=O)N4CCOCC4)cc3c2C1=O
17,58,CC(=O)OCCN1C(=O)c2c(-c3ccc(C(=O)N(C)C)cc3)nc3ccc(S(=O)(=O)N4CCOCC4)cc3c2C1=O
